Measured values from patent US9181259B2 (LEO PHARMA A/S, priority 2012, dated 2015).
Structures can show the parent of a compound that is named as a salt.

biological target: T1, NK1 receptor (Homo sapiens, UniProt P25103); assay: NK1 receptor mediated intracellular [Ca2+] mobilization in U251 MG cells using FLIPR; format: cell-based; details: antagonist potency against Substance P (EC80), normalized to 100 nM Aprepitant, read-out: U251MG (FLIPR pIC50) (converted)
T1 construct: Measurement of NK1 Receptor Mediated Intracellular [Ca^2+]; Mobilization in U251 MG Cells Using FLIPR; endogenous in cells; host or cells: U251 MG cells
T1 sequence (P25103 whole entry): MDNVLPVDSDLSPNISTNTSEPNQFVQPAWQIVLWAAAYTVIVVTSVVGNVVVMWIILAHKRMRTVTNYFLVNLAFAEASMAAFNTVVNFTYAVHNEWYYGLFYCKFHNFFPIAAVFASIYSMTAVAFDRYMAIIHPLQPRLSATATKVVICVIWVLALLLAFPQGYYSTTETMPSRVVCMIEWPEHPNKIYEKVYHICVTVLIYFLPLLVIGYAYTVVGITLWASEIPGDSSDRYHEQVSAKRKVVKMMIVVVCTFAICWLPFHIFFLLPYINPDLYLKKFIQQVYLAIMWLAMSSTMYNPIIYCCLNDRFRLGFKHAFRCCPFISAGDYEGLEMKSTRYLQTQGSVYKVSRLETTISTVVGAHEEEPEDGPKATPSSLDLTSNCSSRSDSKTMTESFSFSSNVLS
Experimental: Measurement of NK1 Receptor Mediated Intracellular [Ca^2+] Mobilization in U251 MG Cells Using FLIPR
U251 MG cells were seeded into black walled clear-bottom 384-well plates (Greiner Bio-One GmbH, Frickenhausen, Germany) at a density of 15,000 cells/well in 50 μl culture medium and cultured overnight in a 37° C. 5% CO2 incubator. The cells were then loaded with the calcium sensitive dye Fluo-4 (Invitrogen) at 1 μM in buffer, containing 0.04%
Pluronic F-127 (Sigma-Aldrich), and 2.5 mM probenecid (Sigma-Aldrich) for 60 min in a humidified atmosphere of 5% CO2. Thereafter, cells were washed three times in washing buffer containing 20 mM HEPES and 2.5 mM probenecid pH 7.3. Serial dilutions of test compounds in assay buffer containing 2% dimethyl sulfoxide (final concentration in the cell plate is 0.5% DMSO) and/or agonist were then automatically pipetted into each test well, and the peak fluorescence intensity was recorded (lex, 488 nm; lem, 540 nm) by the FLIPR instrument (Molecular Devices) for approximately 5 min. To measure antagonist potency, cell plates were first incubated with the test compound and intracellular fluorescence recorded for 5 minutes to check a potential agonist effect of the test compound. Cell plates were quickly removed from the FLIPR instrument and incubated for additional 10 minutes at 37° C. before being moved back to the FLIPR instrument for Substance P (EC80) addition. The response was measured as the peak relative fluorescence change after agonist addition.
The IC50 value is defined as the molar concentration of a test compound that produces a response midway between the fitted top and the fitted bottom. pIC50=−log IC50
Formula is listed as follows: Fit(% Effect calculated)=(A+((B−A)/(1+((C/X)^D)))) • A: bottom value • B: top value • C: […] • D: Hill slope coefficient
Ref: Sullivan E, Tucker E M, and Dale I L. Measurement of [Ca^2+] using the Fluorometric Imaging Plate Reader (FLIPR). Methods Mol Biol 114:125-133, 1999.
Compounds of the present invention were tested according to example 120.

Row | SMILES | IC50
1 | COC(=O)C1(C)CC2C(c3ccccc3C)N(C(=O)N(C)Cc3cc(C(F)(F)F)cc(C(F)(F)F)c3)CCN2C1=O (single isomer, unassigned) [Compound 12, Methyl 2-({[3,5-bis(trifluoromethyl)phenyl]methyl}(methyl)carbamoyl)-7-methyl-1-(2-methylphenyl)-6-oxo-octahydropyrrolo{1,2-a}piperazine-7-carboxylate] | 1.78 nM
2 | COC(=O)C1(C)CC2C(c3ccccc3C)N(C(=O)N(C)Cc3cc(C(F)(F)F)cc(C(F)(F)F)c3)CCN2C1=O (single isomer, unassigned) [Compound 13, Methyl 2-({[3,5-bis(trifluoromethyl)phenyl]methyl}(methyl)carbamoyl)-7-methyl-1-(2-methylphenyl)-6-oxo-octahydropyrrolo{1,2-a}piperazine-7-carboxylate] | 4.17 nM
3 | COC(=O)C1(C)CC2C(c3ccccc3C)N(C(=O)N(C)Cc3cc(C(F)(F)F)cc(C(F)(F)F)c3)CCN2C1=O (single isomer, unassigned) [Compound 14, Methyl 2-({[3,5-bis(trifluoromethyl)phenyl]methyl}(methyl)carbamoyl)-7-methyl-1-(2-methylphenyl)-6-oxo-octahydropyrrolo{1,2-a}piperazine-7-carboxylate] | 0.0692 nM
4 | COC(=O)C1(C)CC2C(c3ccccc3C)N(C(=O)N(C)Cc3cc(C(F)(F)F)cc(C(F)(F)F)c3)CCN2C1=O (single isomer, unassigned) [Compound 15, Methyl 2-({[3,5-bis(trifluoromethyl)phenyl]methyl}(methyl)carbamoyl)-7-methyl-1-(2-methylphenyl)-6-oxo-octahydropyrrolo{1,2-a}piperazine-7-carboxylate] | 0.1 nM
5 | Cc1ccccc1C1C2CCC(=O)N2CCN1C(=O)N(C)Cc1cc(C(F)(F)F)cc(C(F)(F)F)c1 (single isomer, unassigned) [Compound 17, N-{[3,5-bis(trifluoromethyl)phenyl]methyl}-N-methyl-1-(2-methylphenyl)-6-oxo-octahydropyrrolo[1,2-a]piperazine-2-carboxamide] | 28.2 nM
6 | Cc1ccccc1C1C2CC(CO)C(=O)N2CCN1C(=O)N(C)Cc1cc(C(F)(F)F)cc(C(F)(F)F)c1 (single isomer, unassigned) [Compound 19, N-{[3,5-bis(trifluoromethyl)phenyl]methyl}-7-(hydroxymethyl)-N-methyl-1-(2-methylphenyl)-6-oxo-octahydropyrrolo[1,2-a]piperazine-2-carboxamide] | 3.72 nM
7 | Cc1ccccc1C1C2CC(CO)C(=O)N2CCN1C(=O)N(C)Cc1cc(C(F)(F)F)cc(C(F)(F)F)c1 (single isomer, unassigned) [Compound 20, N-{[3,5-bis(trifluoromethyl)phenyl]methyl}-7-(hydroxymethyl)-N-methyl-1-(2-methylphenyl)-6-oxo-octahydropyrrolo[1,2-a]piperazine-2-carboxamide] | 1.66 nM
8 | Cc1ccccc1C1C2CC(CO)C(=O)N2CCN1C(=O)N(C)Cc1cc(C(F)(F)F)cc(C(F)(F)F)c1 (single isomer, unassigned) [Compound 21, N-{[3,5-bis(trifluoromethyl)phenyl]methyl}-7-(hydroxymethyl)-N-methyl-1-(2-methylphenyl)-6-oxo-octahydropyrrolo[1,2-a]piperazine-2-carboxamide] | 0.0407 nM
9 | Cc1ccccc1C1C2CC(CO)C(=O)N2CCN1C(=O)N(C)Cc1cc(C(F)(F)F)cc(C(F)(F)F)c1 (single isomer, unassigned) [Compound 23, N-{[3,5-bis(trifluoromethyl)phenyl]methyl}-7-(hydroxymethyl)-N-methyl-1-(2-methylphenyl)-6-oxo-octahydropyrrolo[1,2-a]piperazine-2-carboxamide] | 0.0776 nM
10 | Cc1ccccc1C1C2CC(C)(C(=O)N(C)C)C(=O)N2CCN1C(=O)N(C)Cc1cc(C(F)(F)F)cc(C(F)(F)F)c1 (single isomer, unassigned) [Compound 25, 2-N-{[3,5-bis(trifluoromethyl)phenyl]methyl}-2-N,7-N,7-N,7-tetramethyl-1-(2-methylphenyl)-6-oxo-octahydropyrrolo[1,2-a]piperazine-2,7-dicarboxamide] | 22.9 nM
11 | Cc1ccccc1C1C2CC(CO)CN2CCN1C(=O)N(C)Cc1cc(C(F)(F)F)cc(C(F)(F)F)c1 (single isomer, unassigned) [Compound 27, N-{[3,5-bis(trifluoromethyl)phenyl]methyl}-7-(hydroxymethyl)-N-methyl-1-(2-methylphenyl)-octahydropyrrolo[1,2-a]piperazine-2-carboxamide; methanesulfonic acid salt] | 58.9 nM
12 | Cc1ccccc1C1C2CC(CO)CN2CCN1C(=O)N(C)Cc1cc(C(F)(F)F)cc(C(F)(F)F)c1 (single isomer, unassigned) [Compound 28, N-{[3,5-bis(trifluoromethyl)phenyl]methyl}-7-(hydroxymethyl)-N-methyl-1-(2-methylphenyl)-octahydropyrrolo[1,2-a]piperazine-2-carboxamide; methanesulfonic acid salt] | 0.912 nM
13 | Cc1ccccc1C1C2CC(CN3CCCC3)C(=O)N2CCN1C(=O)N(C)Cc1cc(C(F)(F)F)cc(C(F)(F)F)c1 (single isomer, unassigned) [Compound 31, N-{[3,5-bis(trifluoromethyl)phenyl]methyl}-N-methyl-1-(2-methylphenyl)-6-oxo-7-(pyrrolidin-1-ylmethyl)-octahydropyrrolo[1,2-a]piperazine-2-carboxamide] | 0.513 nM
14 | C=C1CC2C(c3ccccc3C)N(C(=O)N(C)Cc3cc(C(F)(F)F)cc(C(F)(F)F)c3)CCN2C1=O (single isomer, unassigned) [Compound 32, N-{[3,5-bis(trifluoromethyl)phenyl]methyl}-N-methyl-7-methylidene-1-(2-methylphenyl)-6-oxo-octahydropyrrolo[1,2-a]piperazine-2-carboxamide] | 0.437 nM
15 | Cc1ccccc1C1C2CC(CCO)C(=O)N2CCN1C(=O)N(C)C(CCO)c1cc(C(F)(F)F)cc(C(F)(F)F)c1 (single isomer, unassigned) [Compound 34, N-{1-[3,5-bis(trifluoromethyl)phenyl]-3-hydroxypropyl}-7-(2-hydroxyethyl)-N-methyl-1-(2-methylphenyl)-6-oxo-octahydropyrrolo[1,2-a]piperazine-2-carboxamide] | 15.5 nM
16 | Cc1ccccc1C1C2CC(CCO)C(=O)N2CCN1C(=O)N(C)C(CCO)c1cc(C(F)(F)F)cc(C(F)(F)F)c1 (single isomer, unassigned) [Compound 35, N-{1-[3,5-bis(trifluoromethyl)phenyl]-3-hydroxypropyl}-7-(2-hydroxyethyl)-N-methyl-1-(2-methylphenyl)-6-oxo-octahydropyrrolo[1,2-a]piperazine-2-carboxamide] | 0.2 nM
17 | Cc1ccccc1C1C2CC(CN3CCOCC3)C(=O)N2CCN1C(=O)N(C)Cc1cc(C(F)(F)F)cc(C(F)(F)F)c1 (single isomer, unassigned) [Compound 39] | 2.88 nM
18 | Cc1ccccc1C1C2CC(CN3CCOCC3)C(=O)N2CCN1C(=O)N(C)Cc1cc(C(F)(F)F)cc(C(F)(F)F)c1 (single isomer, unassigned) [Compound 40] | 7.76 nM
